Test results: patent US20130059787A1, “METHODS OF USING HUMAN PROTEIN KINASE C DELTA VIII AS A BIOMARKER” (UNITED STATES DEPARTMENT OF VETERAN AFFAIRS, priority 2010, published 2013)

Key:
Assay type in all cases: cell-based, human
[1] = tested on: PKCδ promoter; test: pGlow-PKCδ promoter reporter transfected into NT2 cells; conditions: RA treatment
From the text: Computational analysis of PKCδ promoter indicated putative RAREs. pGlow-PKCδ promoter (gift from Dr. Stuart H. Yuspa, NCI) was transfected into NT2 cells to determine if RA regulates transcription of the PKCδ gene via RARE on the PKCδ promoter region. […] This was verified by western blot analysis using GFP antibody to confirm up-regulation of PKCδ promoter by ATRA treatment.

[2] = tested on: 5′ splice site II on PKCδ exon 10; test: Mutated pSPL3_PKCδ** minigene (SC35 cis-element mutated) in NT2 cells, RT-PCR; conditions: RA about 10 μM, about 24 h
From the text: FIG. 11 is a series of images depicting mutation of putative SC35 binding site inhibits RA-mediated utilization of 5′ splice site II utilization on the minigene. (a) schematic of the position and sequence of the putative SC35 cis-element on the pSPL3_PKCδ splicing minigene. Arrows indicate the position of primers used in PCR analysis. Putative SC35 binding site ggccaaag (SEQ ID No: 17) was mutated to tagcccaga (SEQ ID No: 18) on the minigene. (b) resulting mutated minigene pSPL3_PKCδ** was transfected into NT2 cells. In separate wells, the mutated minigene pSPL3_PKCδ** was co-transfected with either about 2 μg of SC35 or SF2/ASF. The original pSPL3_PKCδ splicing minigene was also transfected in a separate well. After overnight transfection, NT2 cells were treated with or without about 10 μM RA for about 24 h. Total RNA was extracted and RT-PCR performed using primers for PKCδ exon 10 sense and SA antisense as shown. About 5% of the products were separated by PAGE and silver stained for visualization. SSI: usage of 5′ splice site I; SSII: usage of 5′ splice site II. Graph represents percent exon inclusion calculated as SS II/(SS II+SSI)×100 and is representative of three experiments performed separately. […]

[3] = tested on: A1; test: Apoptosis micro-array (SuperArray, real-time RT-PCR) in NT2 cells; conditions: RA about 24 h vs control
From the text: (§1) FIG. 4 is a 3D profile of the results from the apoptosis micro-array. The graph represents an average of control and RA (1 day) samples carried out in triplicate. The average ΔCt=Ct(gene of interest)−Ct(housekeeping gene).
(§2) The inventors have shown that retinoic acid increases the levels of PKCδVIII in NT2 cells. An apoptosis micro-array (SuperArray, catalog #PAHS-012A) was used to determine the profiles of proteins associated with the apoptotic cascade. RNA was isolated from control and RA (about 24 h) treated NT2 cells and used in the analysis. Real-time RT-PCR was performed according to the manufacturers' protocol and data was analyzed by SuperArray software (FIG. 4). The inventors observed about a 6-fold increase in Bcl-2 levels which were concurrent with an increase in PKCδVIII levels following RA treatment.

[4] = tested on: Mcl-1; test: as above; conditions: RA about 24 h vs control
From the text: as §1, §2

[5] = tested on: Bcl-2; test: as above; conditions: RA about 24 h vs control
From the text: as §1, §2

Compound: CC1=C(/C=C/C(C)=C/C=C/C(C)=C/C(=O)O)C(C)(C)CCC1 [RA, all-trans-retinoic acid]
- fluorescence of pGlow-PKCδ promoter compared to control samples [1]: four-fold increase
- selection of 5′ splice site II on PKCδ exon 10 in pSPL3_PKCδ**-mutated minigene [2]: did not promote
- A1 levels [3]: Moderate increases
- Mcl-1 levels [4]: Moderate increases
- increase in Bcl-2 levels [5]: ~6 fold
